The values that follow come from patent US20190008848A1, “IDENTIFICATION OF ADDITIONAL ANTI-PERSISTER ACTIVITY AGAINST BORRELIA BURGDORFERI FROM AN FDA DRUG LIBRARY” (THE JOHNS HOPKINS UNIVERSITY, priority 2015, published 2019).

Structures can show the parent of a compound that is named as a salt.

A word on the MIC: it is the lowest concentration found to suppress growth.

The subject of series [1] is stationary phase B. burgdorferi. Put plainly: Residual viable B. burgdorferi by epifluorescence microscope counting after drug exposure. Conditions: for viability at 50 µM: Borreliella burgdorferi, 168 h, read-out: Residual viable cells (Microscopy); for Residual viable cells (Microscopy): drugs 50 μM. As to the method: (§1) Borrelia burgdorferi strain B31 (ATCC35210) was received from the […] (Manassas, Va., USA) and was grown in BSK-H medium (HiMedia Laboratories, Mumbai, India) and 6% rabbit serum (Sigma Aldrich, St. Louis, Mo., USA). The culture was filtered and sterilized using a […] and incubated in capped sterile 50 mL conical tubes (BD Biosciences, CA, USA) at 33° C. for 7 days without antibiotics until the culture reached stationary phase.
(§2) The cultures were examined using a Nikon Eclipse E800 microscope with differential interference contrast and epifluorescent illumination. The pictures were captured using a SPOT slider color camera. A SYBR Green I/PI assay was used to assess the viability of the bacterial sample using the ratio of live to dead B. burgdorferi (measured with green and red fluorescence, respectively) as measured by a plate reader.
(§3) Briefly, prediluted drug stock (10 μL) was added to 7 day old stationary phase B. burgdorferi culture (90 μL) to achieve a 50 μM final drug concentration per well. The plates were then incubated at 33° C. for 7 days at which point the SYBR/PI rapid viability assay was performed in a fluorescence plate reader to obtain the green-red fluorescence ratio.

The test system is the same in series [2]. The series can be described thus: SYBR Green I/PI viability assay (drug library screen, plate reader). Conditions: for viability at 50 µM: Borreliella burgdorferi, 168 h; for activity against stationary phase B. burgdorferi (in words): screen at 50 μM, 7 days; for Residual viable cells (SYBR Green/PI): Table 1; for Residual viable cells (SYBR/PI): Table 3. How it is done:
as §1, §2, §3

Series [3] has as its system growing B. burgdorferi. Put plainly: MIC of active hits. In kind it is cell-based, Borrelia burgdorferi. Conditions: Borreliella burgdorferi, read-out: MIC.
[4] abbreviates: read-out: Residual viable cells (SYBR Green/PI), Table 1, drugs 50 μM, 7 day old stationary phase cells treated for 7 days.
[5] abbreviates: read-out: Residual viable cells (SYBR/PI), Table 3, drugs 50 μM, 7-day old stationary phase cells treated for 7 days.
[6] abbreviates: read-out: Residual viable cells (SYBR/PI).
[7] abbreviates: Table 1, 7 day old stationary phase cells treated for 7 days.
[8] abbreviates: drugs 50 μM, 7 day old stationary phase cells treated for 7 days.
The mark [9] stands for this setting: drugs 50 μM, 7-day old stationary phase cells treated for 7 days.

In the case of `O=C(O)[C@@H]1CCC(O)=N1` (racemic) [Pidolic acid, DL-2-Pyrrolidone-5-Carboxylic Acid], the viability at 50 µM in series [1] is 45%; in series [2] (setting [4]) it was 45%; in series [2] (setting [5]), 43%. For the same compound, the “activity against stationary phase B. burgdorferi (in words)” value (“activity” for short) in series [2] is on record as “high activity”. The minimal inhibitory concentration (MIC) in series [3] was in the range of 0.81 to 1.61 µg/mL.
Consider `CCCCCCCCCCCC[N+](C)(C)Cc1ccccc1` [Benzododecinium chloride], for which the viability at 50 µM in series [2] (setting [5]) was found to be 40%. In series [2], the “activity” value is given as “very high activities”. Further, in series [3], the MIC lay in the range of 0.6 to 1.2 µg/mL.
As to `CC[C@H]1OC(=O)[C@H](C)[C@@H](O[C@H]2C[C@@](C)(OC)[C@@H](O)[C@H](C)O2)[C@H](C)[C@@H](O[C@@H]2O[C@H](C)C[C@H](N(C)C)[C@H]2O)[C@](C)(O)C[C@@H](C)/C(=N\OCOCCOC)[C@H](C)[C@@H](O)[C@]1(C)O` [Roxithromycin], the viability at 50 µM in series [1] was 65%; in series [2] (setting [4]), 62%; in series [2] (setting [5]), 62%.
Regarding `O=C(O)c1cn(-c2ccc(F)cc2)c2cc(N3CCNCC3)c(F)cc2c1=O` [Sarafloxacin, Sarafloxacin HCl], the viability at 50 µM in series [1] stood at 50%; in series [2] (setting [4]) it was 47%; in series [2] (setting [5]) it was 47%.
In the case of `Cc1nc(NS(=O)(=O)c2ccc(N)cc2)oc1C` [Sulfamoxole], the viability at 50 µM in series [1] is 55%; in series [2] (setting [4]), 57%; in series [2] (setting [5]), 57%.
For `C[C@]1(Cn2ccnn2)[C@H](C(=O)O)N2C(=O)C[C@H]2S1(=O)=O` [Tazobactam], the viability at 50 µM in series [1] was found to be 56%; in series [2] (setting [4]), 54%; in series [2] (setting [5]) it was 54%.
Consider `ClC(Cl)=C(Cl)Cl` [Tetrachloroethylene], for which the figures for the viability at 50 µM in series [1] and in series [2] (setting [6]) were 53% and 36%, respectively.
`C=C(NC(=O)C(=C)NC(=O)c1csc(C2=N[C@@H]3c4csc(n4)[C@H]4NC(=O)c5csc(n5)[C@H]([C@](C)(O)[C@@H](C)O)NC(=O)[C@H]5CSC(=N5)/C(=C/C)NC(=O)[C@H]([C@@H](C)O)NC(=O)c5csc(n5)[C@]3(CC2)NC(=O)[C@H](C)NC(=O)C(=C)NC(=O)[C@H](C)NC(=O)[C@H]([C@@H](C)CC)N[C@@H]2C=Cc3c([C@H](C)O)cc(nc3[C@H]2O)C(=O)O[C@@H]4C)n1)C(N)=O` [Thiostrepton]: the viability at 50 µM in series [1] stood at 66%; in series [2] (read-out: Residual viable cells (SYBR Green/PI)) it was 43%; in series [2] (setting [6]) it was 43%.
For the compound `Cc1cc(-n2c(=O)[nH]c(=O)n(C)c2=O)ccc1Oc1ccc(SC(F)(F)F)cc1` [Toltrazuril], the results for the viability at 50 µM in series [1], in series [2] (setting [4]) and in series [2] (setting [5]) were 60%, 43% and 43%, respectively.
With `C=CCCCCCCCCC(=O)O` [Undecylenic acid], the viability at 50 µM in series [1] came out at 74%; in series [2] (setting [5]) it was 55%.
In the case of `CC(=O)N[C@H]1[C@H]([C@H](O)[C@H](O)CO)OC(C(=O)O)=C[C@@H]1N=C(N)N` [Zanamivir], the viability at 50 µM in series [1] was determined as 60%; in series [2] (setting [4]), 49%; in series [2] (setting [5]) it was 49%. In addition, the “activity” value in series [2] is recorded as “good activity”.
For the compound Mepartricin, in series [1] (setting [7]), the “Residual viable cells (Microscopy)” value is reported as 60%. Moreover, the “Residual viable cells (SYBR Green/PI)” value in series [2] (setting [8]) was determined as 43%. The “Residual viable cells (SYBR/PI)” value in series [2] (setting [9]) stood at 43%. For the same compound, the “activity” value in series [2] is given as “reasonable activity”.
Take “Potassium antimonyl tartrate trihydrate [Tartar emetic]”: the “Residual viable cells (Microscopy)” value in series [1] (setting [7]) was 45%; in series [1] (Table 3, 7-day old stationary phase cells treated for 7 days) it was 45%. Further, in series [2] (setting [8]), the “Residual viable cells (SYBR Green/PI)” value is on record as 42%. The “Residual viable cells (SYBR/PI)” value in series [2] (setting [9]) was found to be 42%.
